Assays:
AMPKα1 = target: T1, AMPKα1 (Homo sapiens, UniProt Q13131); assay: Kinase profiling at 10 μM (Eurofins); type: biochemical; settings: read-out: Inhibitory activity
T1 construct: purchased Eurofins Pharma Discovery (KinaseProfiler); IC50 values by Reaction Biology Corp

FGFR2 = target: T2, FGFR2 (Homo sapiens, UniProt P21802); assay: Kinase profiling at 10 μM (Eurofins); type: biochemical; settings: read-out: Inhibitory activity
T2 construct: purchased Eurofins Pharma Discovery (KinaseProfiler); IC50 values by Reaction Biology Corp
T2 sequence (P21802 22-821): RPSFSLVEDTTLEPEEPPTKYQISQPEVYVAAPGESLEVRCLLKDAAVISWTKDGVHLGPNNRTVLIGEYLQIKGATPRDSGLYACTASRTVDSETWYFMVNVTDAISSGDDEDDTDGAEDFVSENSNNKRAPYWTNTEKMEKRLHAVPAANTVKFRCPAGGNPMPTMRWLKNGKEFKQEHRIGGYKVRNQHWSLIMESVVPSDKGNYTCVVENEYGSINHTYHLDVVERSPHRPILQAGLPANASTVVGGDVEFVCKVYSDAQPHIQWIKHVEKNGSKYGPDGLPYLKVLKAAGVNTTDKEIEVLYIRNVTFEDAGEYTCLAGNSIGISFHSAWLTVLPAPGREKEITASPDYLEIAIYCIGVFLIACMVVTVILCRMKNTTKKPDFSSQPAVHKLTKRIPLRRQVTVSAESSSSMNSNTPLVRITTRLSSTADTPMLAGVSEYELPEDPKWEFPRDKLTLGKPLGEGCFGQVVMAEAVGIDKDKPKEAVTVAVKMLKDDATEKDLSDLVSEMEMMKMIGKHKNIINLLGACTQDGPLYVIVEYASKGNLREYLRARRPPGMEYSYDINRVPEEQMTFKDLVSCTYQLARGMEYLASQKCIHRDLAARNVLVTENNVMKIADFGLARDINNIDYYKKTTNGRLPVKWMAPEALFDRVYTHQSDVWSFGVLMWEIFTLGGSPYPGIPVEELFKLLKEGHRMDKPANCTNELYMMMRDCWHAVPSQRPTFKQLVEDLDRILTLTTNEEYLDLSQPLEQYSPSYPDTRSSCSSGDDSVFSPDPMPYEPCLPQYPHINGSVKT

HIPK2 = target: T3, HIPK2 (Homo sapiens, UniProt Q9H2X6); assay: Kinase profiling at 10 μM (Eurofins); type: biochemical; settings: read-out: Inhibitory activity
T3 construct: purchased Eurofins Pharma Discovery (KinaseProfiler); IC50 values by Reaction Biology Corp
T3 sequence (Q9H2X6 whole entry): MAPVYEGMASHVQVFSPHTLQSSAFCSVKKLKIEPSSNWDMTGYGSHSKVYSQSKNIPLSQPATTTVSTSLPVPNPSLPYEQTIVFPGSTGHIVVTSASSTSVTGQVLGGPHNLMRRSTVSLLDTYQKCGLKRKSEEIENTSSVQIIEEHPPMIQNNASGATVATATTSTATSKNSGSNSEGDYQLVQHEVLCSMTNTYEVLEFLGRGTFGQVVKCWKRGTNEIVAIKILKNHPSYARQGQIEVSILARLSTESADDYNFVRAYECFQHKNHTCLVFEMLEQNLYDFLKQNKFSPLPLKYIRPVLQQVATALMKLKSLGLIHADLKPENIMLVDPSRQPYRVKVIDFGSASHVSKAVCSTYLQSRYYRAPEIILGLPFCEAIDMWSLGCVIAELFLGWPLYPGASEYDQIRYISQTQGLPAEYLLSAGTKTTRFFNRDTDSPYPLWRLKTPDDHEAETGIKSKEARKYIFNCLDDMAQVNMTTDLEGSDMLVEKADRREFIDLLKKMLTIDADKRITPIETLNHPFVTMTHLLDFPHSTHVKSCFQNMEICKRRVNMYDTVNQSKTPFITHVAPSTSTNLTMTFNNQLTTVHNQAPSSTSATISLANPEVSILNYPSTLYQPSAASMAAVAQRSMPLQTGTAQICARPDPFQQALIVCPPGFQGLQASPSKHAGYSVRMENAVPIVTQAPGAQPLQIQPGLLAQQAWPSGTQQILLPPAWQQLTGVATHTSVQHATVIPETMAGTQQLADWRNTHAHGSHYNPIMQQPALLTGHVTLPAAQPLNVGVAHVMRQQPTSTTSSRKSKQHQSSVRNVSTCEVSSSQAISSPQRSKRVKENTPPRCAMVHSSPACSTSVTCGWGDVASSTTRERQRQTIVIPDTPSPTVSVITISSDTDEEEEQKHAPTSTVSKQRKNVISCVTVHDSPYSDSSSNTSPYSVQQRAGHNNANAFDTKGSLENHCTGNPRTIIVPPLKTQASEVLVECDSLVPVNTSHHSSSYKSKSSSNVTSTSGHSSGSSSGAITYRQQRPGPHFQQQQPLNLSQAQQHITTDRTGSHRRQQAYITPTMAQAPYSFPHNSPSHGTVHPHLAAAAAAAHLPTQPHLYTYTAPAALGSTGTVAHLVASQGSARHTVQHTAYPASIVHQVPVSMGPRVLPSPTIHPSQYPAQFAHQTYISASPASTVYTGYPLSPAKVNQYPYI

ROS = target: T4, ROS (Homo sapiens, UniProt P08922); assay: Kinase profiling at 10 μM (Eurofins); type: biochemical; settings: read-out: Inhibitory activity
T4 construct: purchased Eurofins Pharma Discovery (KinaseProfiler); IC50 values by Reaction Biology Corp

MV4-11 cells = assay: Immunoblot of phospho-STAT5; type: cell-based, human; settings: 1 h
Procedure: (§1) Cell lysates were prepared by extracting proteins with TNN buffer (40 mM Tris-Cl pH 8.0, 0.2% NP-40, 120 mM NaCl) or radioimmunoprecipitation assay (RIPA) lysis buffer (Millipore, Billerica MA, USA) supplemented with a protease inhibitor cocktail (Thermo Fisher Scientific, Rockford, IL, USA). Equal amounts of proteins were separated using SDS-PAGE on 8–13% gels, and transferred to nitrocellulose membranes (Bio-Rad, Hercules, CA, USA). The membranes were blocked with 5% skim milk in Tris-buffered saline-Tween 20 (TBST) (150 mM NaCl, 10 mM Tris, 0.2% Tween20), followed by overnight incubation with primary antibodies at 4 °C. The blots were developed using peroxidase-conjugated secondary antibody and the immunoreactive proteins were visualized using enhanced chemiluminescence (ECL) reagents, according to the manufacturer’s recommendations (Amersham, GE Healthcare, Buckingamshire, UK). The protein bands were visualized using a digital imaging system (ImageQuant LAS 4000 mini; GE Healthcare, UK). The protein levels were analyzed using Image J software (National Institutes of Health, Bethesda, MD, USA). Experiments were repeated at least thrice.
(§2) Supplementary Figure 3. AIU2001 inhibited downstream effector STAT5 of FLT3 signaling in
(§3) FLT3(ITD)-AML cells. […]
(§4) AIU2001 for 1h. Cell lysates were prepared and analyzed using immunoblotting for detecting […]

Molm-13 cells = assay: Immunoblot of phospho-STAT5; type: cell-based, human; settings: 1 h
Procedure: as §1, §2, §3, §4

H1299 cells = assay: Immunoblot of phospho-STAT5; type: cell-based, human
Procedure: as §1

T1 sequence (Q13131 whole entry): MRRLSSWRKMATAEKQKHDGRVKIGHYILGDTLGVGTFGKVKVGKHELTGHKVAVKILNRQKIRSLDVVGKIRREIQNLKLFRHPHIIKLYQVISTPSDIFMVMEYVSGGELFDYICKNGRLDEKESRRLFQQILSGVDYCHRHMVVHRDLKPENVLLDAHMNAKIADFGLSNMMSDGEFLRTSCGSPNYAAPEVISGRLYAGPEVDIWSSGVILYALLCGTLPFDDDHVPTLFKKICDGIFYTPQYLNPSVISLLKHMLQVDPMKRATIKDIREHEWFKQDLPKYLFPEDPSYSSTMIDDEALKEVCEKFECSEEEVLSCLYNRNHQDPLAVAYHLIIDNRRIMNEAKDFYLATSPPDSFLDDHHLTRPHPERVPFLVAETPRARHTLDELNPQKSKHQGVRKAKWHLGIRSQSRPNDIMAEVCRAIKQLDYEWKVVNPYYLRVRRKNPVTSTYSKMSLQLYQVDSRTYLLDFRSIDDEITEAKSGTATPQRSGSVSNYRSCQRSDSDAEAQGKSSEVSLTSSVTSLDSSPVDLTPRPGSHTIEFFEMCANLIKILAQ
T1 sequence (Q9Y478 whole entry partner): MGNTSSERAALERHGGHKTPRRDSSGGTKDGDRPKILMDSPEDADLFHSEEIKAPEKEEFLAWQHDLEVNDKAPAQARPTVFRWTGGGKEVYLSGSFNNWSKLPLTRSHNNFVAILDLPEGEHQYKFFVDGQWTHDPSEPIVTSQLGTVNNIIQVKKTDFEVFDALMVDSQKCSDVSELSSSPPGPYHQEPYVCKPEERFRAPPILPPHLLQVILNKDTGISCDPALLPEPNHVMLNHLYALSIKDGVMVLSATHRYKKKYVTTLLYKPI
T1 sequence (P54619 whole entry partner): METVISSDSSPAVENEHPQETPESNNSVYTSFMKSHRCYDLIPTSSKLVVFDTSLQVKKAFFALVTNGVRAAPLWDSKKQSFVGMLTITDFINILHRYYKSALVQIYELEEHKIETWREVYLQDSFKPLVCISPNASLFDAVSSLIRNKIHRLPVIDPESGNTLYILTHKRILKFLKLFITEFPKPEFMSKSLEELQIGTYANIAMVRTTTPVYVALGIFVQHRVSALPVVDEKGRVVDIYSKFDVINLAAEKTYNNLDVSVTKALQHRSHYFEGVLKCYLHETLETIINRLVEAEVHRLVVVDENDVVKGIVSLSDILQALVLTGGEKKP

Brc1ccc(-c2cnc(Nc3cccc4ccccc34)o2)cc1 [AIU2001, 5-(4-bromophenyl)-N-(naphthalen-1-yl) oxazol-2-amine]
inhibition at 10 µM (AMPKα1): 25%
inhibition at 10 µM (FGFR2): 1%
inhibition at 10 µM (HIPK2): 0%
inhibition at 10 µM (ROS): 2%
Phosphorylated STAT5 (MV4-11 cells): dose-dependently inhibited phosphorylated STAT5
Phosphorylated STAT5 (Molm-13 cells): dose-dependently inhibited phosphorylated STAT5
Phosphorylated STAT5 (H1299 cells): inhibited phosphorylated STAT5
